As usually defined, the solubility is the dissolved amount per volume that the medium holds.

These results are taken from article PMC12505254, “PROTAC Enabling Formulation In Vivo: Implications of the Polymeric Carrier Eudragit E PO” (Molecular Pharmaceutics, 2025).

Converted amounts (≈) assume the structure as drawn. Like-named read-outs stand apart in the source and are kept apart here.

Data set [1] is described as follows: Two-stage precipitation assay simulating the conditions in mice. The format is physicochemical. How it is done: To determine the dissolution and precipitation of both the Kolliphor solution vehicle and the SDD dispersion in citrate vehicle upon the GI passage in vitro, a two-stage precipitation assay was conducted which had been developed internally. Therefore, the Kolliphor vehicle containing MS4078 and the dispersion of the SDD in citrate vehicle were prepared according to the descriptions in Sections and , respectively.
According to McConnell et al., the volume of gastric fluid in mice is about 175 μL. […]
The setup of the two-stage precipitation experiments and an overview of the samples are depicted in Figure and Table . […] The concentration of MS4078 was determined by sampling and UHPLC analysis or the turbidity of the samples was analyzed in-line using the Cary3500 (Agilent, Santa Clara, CA, USA) (Figure D). […] As a first step, the optical density (OD) of the cFaSSIF types, Blank-DM (citrate vehicle/SGF pH 4 mixture without polymer or API) and P-DM (a solution of E PO in citrate vehicle/SGF pH 4 mixture) were measured in a range of 200–800 nm (Figure S2). […]
1 Schematic setup of the two-stage precipitation experiments. […] All samples were centrifuged (15,000 rpm (Mikro 200 R)) for 60 s, and the supernatant was diluted with ACN and analyzed via UHPLC (see Section ). […]

A short description of data set [2]: Pharmacokinetic study in mice (K–V i.v./p.o., SDD-V p.o.). In kind it is in vivo, mice (female CD-1). The settings on record: 0.5 mg/kg in K–V. The protocol:
To evaluate the in vivo performance of the MS4078 SDD formulation, pharmacokinetic studies in mice were conducted and compared to the corresponding Kolliphor solution vehicle. The API in Kolliphor vehicle (see Section ) and the SDD formulation were given in a single-dose study to female CD-1 mice (Charles River Laboratories, Sulzfeld, Germany). The animals were kept in group housing in conventional cages with elevated grids. Food and water were offered ad libitum to the animals.
The study was carried out at EMD Serono (Billerica, MA, USA). A total of 21 mice (female, CD-1) were divided into groups of 12 and 9 animals. The solution vehicle was prepared according to Section . Doses of 0.5 mg/kg of MS4078 were administered intravenously (dose volume: 5 mL/kg) to 12 animals and blood samples (retro-orbital) were sequentially drawn from 3 animals per sampling point at 0.1, 0.25, 0.5, 1, 2, 6, and 24 h after dosing. 10 mg/kg were administered orally (dose volume: 10 mL/kg) to the second group of 9 animals. After dosing, blood samples from 3 animals per sampling point were sequentially drawn at the time points described above, except for the 0.1 h sampling point. The blood cells were dissevered by centrifugation (2000 g, 5 min). Plasma samples were extracted using a protein precipitation reagent (ACN, 4:1 (V/V)). After the addition of 50 μL methanol, the concentration was determined by LC-MS/MS (generic method, based on tuning data).
Mouse PK studies of the enabling formulation were conducted at Nuvisan GmbH (Grafing, Germany). To determine oral bioavailability of MS4078/SDD, the SDD formulation (dose: 10 mg/kg MS4078) was weighed in, dispersed in a citrate vehicle (see Section ), and administered orally (gavage, dose volume: 10 mL/kg) to three female mice (Crl:CD1(ICR)). […] 50 μL of supernatant were diluted 1:1 with a solution of 0.1% formic acid in water and the concentration of MS4078 was determined by UHPLC-MS/MS (generic method, based on tuning data).
Plasma concentrations were determined for each time point sampled. […]

Data set [3] is described as follows: Solubility of MS4078 in buffer and cFaSSIF types (24 h, 37°C). In kind it is physicochemical. The settings on record: thermodynamic from solid. How it is done:
The solubility of MS4078 was evaluated by weighing an excess amount of the compound into vials and adding a prewarmed buffer or cFaSSIF types (cFaSSIF1x , cFaSSIF5 x , and cFaSSIF10x ). The suspension was stirred at 37°C for 24 h at 300 rpm. Samples were withdrawn from the suspension, and centrifuged at 15000 rpm (Mikro 200 R, Hettich, Tuttlingen, Germany) and the supernatant was diluted 1:1 with ACN. The dissolved concentration was determined by ultraperformance liquid chromatography (UHPLC, see Section ). The experiments were carried out in triplicate.
UHPLC analysis of MS4078 is described in detail in a previous publication of our group. In brief, the samples were analyzed at 271 nm using a Waters Acquity H-Class series UHPLC system (Waters Corporation, Eschborn, Germany). A gradient was applied using ACN and water with 0.1% (V/V) trifluoracetic acid as mobile phases. Separation was realized by a Waters Acquity BEH C8 column (2.1 × 50 mm, 1.7 μm).

On to `Cc1cc(Nc2ncc(Cl)c(Nc3ccccc3S(=O)(=O)C(C)C)n2)c(OC(C)C)cc1C1CCN(CC(=O)NCCNc2cccc3c2C(=O)N(C2CCC(=O)NC2=O)C3=O)CC1` (centres unmarked) [MS4078], for which, in data set [1] (SDD-DM transferred to cFaSSIF10x, from the 20 min sampling point), the “Dissolved MS4078 concentration in acceptor compartment maintained until end of experiment” value is 30 µg/mL. Moreover, the “Dissolved MS4078 concentration in acceptor compartment after phase separation (plateau)” value in data set [1] (SDD-DM transferred to cFaSSIF20x) is roughly 220 µg/mL. Further, the “in vivo total clearance as % mouse liver blood flow” value in data set [2] is reported as 20 % mouse liver blood flow. In addition, in data set [2] (female, CD-1, mouse, plasma, iv, read-out: in vivo total clearance (converted)), the clearance was 20.3 mL/min/kg. Moreover, the Vd in data set [2] (female, CD-1, mouse, plasma, iv, read-out: volume of distribution (Vss)) turned out to be 1.05 L/kg. Besides, the solubility at 24 h was roughly 2 µg/mL (≈ 2.19 µM) in data set [3] (aqueous buffer, citrate-phosphate buffer pH 5, 37°C, read-out: Solubility); roughly 220 µg/mL (≈ 241 µM) in data set [3] (fassgf or other biorelevant, cFaSSIF5x pH 5, 37°C, read-out: Solubility in 5x concentrated cFaSSIF); 78 µg/mL (≈ 85.3 µM) in data set [3] (fassif, cFaSSIF1x pH 5, 37°C, read-out: Solubility S(cFaSSIF1x)).
